The values below come from patent US20230364019A1, “Multi-targeting cell-derived nanoparticles as a versatile theranostic” (Fondazione Istituto Italiano di Tecnologia, priority 2020, published 2023).

For this experiment, the system named is U-251 MG cell line. Kind of experiment: % cell proliferation of U-251 MG cell line after 72 h with non-encapsulated and encapsulated 3PO. The experiment is classed as cell-based. The settings on record: U-251 cells, inhibitor concentration 5 μM. The procedure: FIG. 5. % Cell proliferation of the U-251 MG cell line, after 72 h, using various concentrations of the non-encapsulated and encapsulated (UHT-CMNPs) model drug 3PO.
The ability of the F-CMNPs to act as drug delivery systems was also studied. […] As a proof of concept, we loaded the glucose inhibitor (2E)-3-(3-Pyridinyl)-1-(4-pyridinyl)-2-propen-1-one (3PO) in the F-CMNPs.

As to `O=C(/C=C/c1cccnc1)c1ccncc1` [3PO, (2E)-3-(3-Pyridinyl)-1-(4-pyridinyl)-2-propen-1-one], the “reduction of cells' proliferation” value is listed as “not affecting”.
